Measured values from EP0339193A1, “Peptide ligands for bombesin receptors” (FARMITALIA CARLO ERBA S.r.l., priority 1988, dated 1989).
Structures can show the parent of a compound that is named as a salt. Numbered stars: 1 amine (or outer) side, 2 acyl side, 3 side chain; on linkers, the order of the positions; unused ones are H or OH. Square brackets hold non-standard residues; d marks the D form. Ends that are not written are not given here. Peptide text beside a SMILES is read from it. * marks the point of attachment. His(Dnp) = O=C([C@H](Cc1cn(-c2ccc([N+](=O)[O-])cc2[N+](=O)[O-])cn1)N[*:1])[*:2]; Dnp = O=[N+]([O-])c1ccc(*)c([N+](=O)[O-])c1; Boc = CC(C)(C)OC(=O)*; NHPentyl = CCCCCN*

Legend:
[1] = molecular target: T1, bombesin receptors (Mus musculus, UniProt P21729); assay: Binding affinity for the bombesin receptors on Swiss 3T3 fibroblasts; conditions: binding affinity on mouse Swiss 3T3 fibroblasts; for IC50: read-out: ID₅₀
T1 construct: has been determined on Swiss 3T3 fibroblasts; endogenous in cells; host or cells: mouse Swiss 3T3 fibroblasts
T1 sequence (P21729 whole entry): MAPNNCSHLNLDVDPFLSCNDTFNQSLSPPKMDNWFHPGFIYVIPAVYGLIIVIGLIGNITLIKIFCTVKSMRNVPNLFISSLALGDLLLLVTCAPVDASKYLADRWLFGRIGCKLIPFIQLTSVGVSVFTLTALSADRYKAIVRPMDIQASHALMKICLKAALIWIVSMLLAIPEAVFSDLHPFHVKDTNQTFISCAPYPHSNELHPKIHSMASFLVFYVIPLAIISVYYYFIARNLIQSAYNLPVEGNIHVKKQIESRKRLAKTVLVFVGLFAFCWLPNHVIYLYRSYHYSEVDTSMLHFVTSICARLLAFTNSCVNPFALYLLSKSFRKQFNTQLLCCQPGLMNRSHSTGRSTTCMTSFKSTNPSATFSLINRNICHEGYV
Description: The binding affinity of the compounds of the present invention for the bombesin receptors has been determined on Swiss 3T3 fibroblasts (I. Zachary and E. Rozengurt (1985) Proc. Natl. Acad. Sci. USA, 82, 7616-7620) (Table 1).

[2] = test system: rat grooming behaviour stimulated by bombesin; assay: Grooming behaviour in the rat after i.c.v. administration (inhibition of bombesin-stimulated grooming); format: in vivo
Description: The antagonistic activity has been evaluated both in vitro and in vivo; in vitro, as inhibition of the bombesin-induced DNA synthesis in Swiss 3T3 cells (A.N. Corps et al. (1985) Biochem. J., 231, 781-785) (Table 2) and rat urinary bladder contraction (M. Broccardo et al. (1975) Br. J.Pharmac., 55, 221-227) (Table 3); in vivo, by i.c.v. administration, as inhibition of the rat grooming behaviour stimulated by bombesin (A. Cowan et al. (1985) Life Sciences, 37, 135-145) (Table 4).

Molecule	ID₅₀ [1]	IC50 [1]	further results
Boc-Thr-Gln-Trp-Ala-Val-Gly-His(Dnp)-Leu-NH₂ (Boc-TQWAVG[His(Dnp)]L-NH2; SMILES CC(C)C[C@H](NC(=O)[C@H](Cc1cn(-c2ccc([N+](=O)[O-])cc2[N+](=O)[O-])cn1)NC(=O)CNC(=O)[C@@H](NC(=O)[C@H](C)NC(=O)[C@H](Cc1c[nH]c2ccccc12)NC(=O)[C@H](CCC(N)=O)NC(=O)[C@@H](NC(=O)OC(C)(C)C)[C@@H](C)O)C(C)C)C(N)=O) [XXXII]	770 ± 13 nM		
H-Thr-Gln-Trp-Ala-Val-Gly-His(Dnp)-Leu-Met-NH₂ . HCl (TQWAVGH; His(Dnp)-Leu-Met-NH2 extension; HCl salt; printed: Thr-Gln-Trp-Ala-Val-Gly-His) [XXII]	5,800 ± 750 nM		
CSCC[C@H](NC(=O)[C@H](CC(C)C)NC(=O)[C@H](Cc1c[nH]cn1)NC(=O)CNC(=O)[C@@H](NC(=O)[C@H](C)NC(=O)[C@H](Cc1c[nH]c2ccccc12)NC(=O)[C@H](CCC(N)=O)NC(=O)[C@@H](N)CC(N)=O)C(C)C)C(N)=O [BBS(6-14)nonapeptide, reference compound]		9.4 ± 3.1 nM	
TQWAVGSLM-NH2 [XXIV, H-Thr-Gln-Trp-Ala-Val-Gly-Ser-Leu-Met-NH₂.CF₃COOH]		590 ± 130 nM	
KTQWAVGALM-NH2 [XXV, H-Lys-Thr-Gln-Trp-Ala-Val-Gly-Ala-Leu-Met-NH₂ . 2HCl]		970 ± 4 nM	
p-GRP: porcine gastrin releasing peptide (APVSVGGGTVLAKMYPRGNHWAVGHLM; ends and bridges not checked; UniProt P63153 24-50, looked up) [reference compound]	17.6 ± 4.0 nM		
CSCC[C@H](NC(=O)[C@H](CC(C)C)NC(=O)CNC(=O)[C@@H](NC(=O)[C@H](C)NC(=O)[C@H](Cc1c[nH]c2ccccc12)NC(=O)[C@H](CCC(N)=O)NC(=O)[C@@H](NC(=O)OC(C)(C)C)[C@@H](C)O)C(C)C)C(N)=O [XVIII, Boc-Thr-Gln-Trp-Ala-Val-Gly-Leu-Met-NH₂] (Boc-TQWAVGLM-NH2)		1000 nM	
RTQWAVGALM-NH2 [XXVI, H-Arg-Thr-Gln-Trp-Ala-Val-Gly-Ala-Leu-Met-NH₂. 2CF₃COOH]		200 ± 60 nM	
CC(C)C[C@H](NC(=O)[C@H](Cc1c[nH]cn1)NC(=O)CNC(=O)[C@@H](NC(=O)[C@H](C)NC(=O)[C@H](Cc1c[nH]c2ccccc12)NC(=O)[C@H](CCC(N)=O)NC(=O)[C@@H](NC(=O)OC(C)(C)C)[C@@H](C)O)C(C)C)C(N)=O [XXXIII, Boc-Thr-Gln-Trp-Ala-Val-Gly-His-Leu-NH₂] (Boc-TQWAVGHL-NH2)		556 ± 128 nM	
CSCC[C@H](NC(=O)[C@H](CC(C)C)NC(=O)[C@@H](Cc1ccccc1)NC(=O)CNC(=O)[C@@H](NC(=O)[C@H](C)NC(=O)[C@H](Cc1c[nH]c2ccccc12)NC(=O)[C@H](CCC(N)=O)NC(=O)[C@@H](N)[C@@H](C)O)C(C)C)C(N)=O [XVII, HCl.H-Thr-Gln-Trp-Ala-Val-Gly-phe-Leu-Met-NH₂] (H-TQWAVG[dF]LM-NH2)		32500 nM	
CCCCCNC(=O)[C@H](CC(C)C)NC(=O)[C@H](Cc1c[nH]cn1)NC(=O)CNC(=O)[C@@H](NC(=O)[C@H](C)NC(=O)[C@H](Cc1c[nH]c2ccccc12)NC(=O)[C@H](CCC(N)=O)NC(=O)[C@@H](N)[C@@H](C)O)C(C)C [XXVIII, H-Thr-Gln-Trp-Ala-Val-Gly-His-Leu-NH(CH₂)₄CH₃. 2CF₃COOH] (H-TQWAVGHL-NHPentyl)		76 ± 30 nM	
TQWAVGLM-NH2 [XIX, HCl. H-Thr-Gln-Trp-Ala-Val-Gly-Leu-Met-NH₂]		3400 nM	
TQWAVGFLM-NH2 [XXIII, H-Thr-Gln-Trp-Ala-Val-Gly-Phe-Leu-Met-NH₂.CF₃COOH]		4700 nM	
CSCC[C@H](NC(=O)[C@@H](CC(C)C)NC(=O)[C@H](Cc1c[nH]cn1)NC(=O)CNC(=O)[C@@H](NC(=O)[C@H](C)NC(=O)[C@H](Cc1c[nH]c2ccccc12)NC(=O)[C@H](CCC(N)=O)NC(=O)[C@@H](N)[C@@H](C)O)C(C)C)C(N)=O [XXI, H-Thr-Gln-Trp-Ala-Val-Gly-His-leu-Met-NH₂.CF₃COOH]		10000 nM	Grooming score ([2]; BBS 0.01 µg/rat + XXI 10 µg/rat in combination): 35; Grooming score ([2]; peptide XXI 10 µg/rat alone): 15
CSCC[C@H](NC(=O)[C@H](CC(C)C)NC(=O)[C@@H](Cc1ccccc1)NC(=O)CNC(=O)[C@@H](NC(=O)[C@H](C)NC(=O)[C@H](Cc1c[nH]c2ccccc12)NC(=O)[C@H](CCC(N)=O)NC(=O)[C@@H](NC(=O)OC(C)(C)C)[C@@H](C)O)C(C)C)C(N)=O [XVI, Boc-Thr-Gln-Trp-Ala-Val-Gly-phe-Leu-Met-NH₂] (Boc-TQWAVG[dF]LM-NH2)		19500 nM	
Glp-Gln-Arg-Leu-Gly-Asn-Gln-Trp-Ala-Val-Gly-His-Leu-Met-NH₂ [BBS, reference compound]	12.6 ± 3.8 nM		Grooming score ([2]; BBS 0.01 µg/rat alone): 55
H-Thr-Gln-Trp-Ala-Val-Gly-His(Dnp)-Leu-NH(CH₂)₄ CH₃.CF₃COOH (H-TQWAVG[His(Dnp)]L-{NH(CH2)4CH3}; also: TFA salt) [XXVII]	335 ± 101 nM		
CSCC[C@H](NC(=O)[C@H](CC(C)C)NC(=O)[C@@H](C)NC(=O)CNC(=O)[C@@H](NC(=O)[C@H](C)NC(=O)[C@H](Cc1c[nH]c2ccccc12)NC(=O)[C@H](CCC(N)=O)NC(=O)[C@@H](NC(=O)OC(C)(C)C)[C@@H](C)O)C(C)C)C(N)=O [XXXIV, Boc-Thr-Gln-Trp-Ala-Val-Gly-ala-Leu-Met-NH₂] (Boc-TQWAVG[dA]LM-NH2)		18200 nM	
H-Thr-Gln-Trp-Ala-Val-Gly-His(Dnp)-leu-Met-NH₂ . HCl (H-TQWAVGH(Dnp); not fully specified (C-terminus); also: HCl salt) [XX]	63,000 nM		
